Measurements: ChEMBL document CHEMBL3621039, “Synthesis of alkylsulfonyl and substituted benzenesulfonyl curcumin mimics as dual antagonist of L-type Ca(2+) channel and endothelin A/B2 receptor” (Bioorg Med Chem, 2015)
pEC50: −log10 of the molar value.

How the values were obtained:
Oryctolagus cuniculus [1] = species: Oryctolagus cuniculus; test: Antagonist activity against endothelin A/B2 receptor in New Zealand white rabbit basilar artery assessed as vasodilation by measuring effect on endothelin-1-induced constriction at 10 uM; format: tissue-based; design: scale not given: the % may be the effect or the level left
Oryctolagus cuniculus [2] = species: Oryctolagus cuniculus; test: Antagonist activity against L-type calcium channel in New Zealand white rabbit basilar artery assessed as vasodilation by measuring effect on 50 mM K+-stimulated depolarization-induced constriction at 10 uM; format: tissue-based; design: scale not given: the % may be the effect or the level left
[3] = Antagonist activity against endothelin A/B2 receptor in New Zealand white rabbit basilar artery assessed as vasodilation by measuring effect on endothelin-1-induced constriction; format: tissue-based, Oryctolagus cuniculus
[4] = Antagonist activity against L-type calcium channel in New Zealand white rabbit basilar artery assessed as vasodilation by measuring effect on 50 mM K+-stimulated depolarization-induced constriction; format: tissue-based, Oryctolagus cuniculus

SMILES | Activity (Oryctolagus cuniculus [1]) [%] | Activity (Oryctolagus cuniculus [2]) [%] | pEC50 [3] | pEC50 [4]
COc1cc(/C=C/C(=O)c2cccc(NS(=O)(=O)c3cccc(C(F)(F)F)c3)c2)ccc1O | 36.5 | 52.3 | – | –
COc1cc(/C=C/C(=O)c2cccc(NS(=O)(=O)c3ccc([N+](=O)[O-])cc3)c2)ccc1O | 98.9 | 70.7 | 5.41 | –
COc1ccc(S(=O)(=O)Nc2cccc(C(=O)/C=C/c3ccc(O)c(OC)c3)c2)cc1 | 56.8 | 26.4 | – | –
CCS(=O)(=O)Nc1cccc(C(=O)/C=C/c2ccc(O)c(OC)c2)c1 | 19.7 | 55.3 | – | –
COc1cc(/C=C/C(=O)c2cccc(NS(=O)(=O)c3ccc(OC(F)(F)F)cc3)c2)ccc1O | 81.4 | 76.7 | 5.21 | –
COc1cc(/C=C/C(=O)c2cccc(NS(=O)(=O)C(C)C)c2)ccc1O | 31.2 | 20.5 | – | –
CCCS(=O)(=O)Nc1cccc(C(=O)/C=C/c2ccc(O)c(OC)c2)c1 | 30.8 | 42.3 | – | –
COc1cc(/C=C/C(=O)c2cccc(NS(=O)(=O)c3ccc(Cl)cc3)c2)ccc1O | 78.3 | 93.4 | 5.23 | 5.25
COc1cc(/C=C/C(=O)c2cccc(NS(=O)(=O)c3ccc(C(C)=O)cc3)c2)ccc1O | 68.7 | 67.9 | – | –
COc1cc(/C=C/C(=O)c2cccc(NS(=O)(=O)c3ccccc3)c2)ccc1O | 40.2 | 50.4 | – | –
COc1cc(/C=C/C(=O)c2cccc(NS(=O)(=O)C(F)(F)F)c2)ccc1O | 34.6 | 10.7 | – | –
COc1cc(/C=C/C(=O)c2cccc(NS(=O)(=O)c3ccc(Cl)cc3Cl)c2)ccc1O | 83.4 | 4.2 | 5.06 | –
COc1cc(/C=C/C(=O)c2cccc(NS(=O)(=O)c3cccs3)c2)ccc1O | 39.1 | 32.4 | – | –
COc1cc(/C=C/C(=O)c2cccc(NS(=O)(=O)c3ccc(F)cc3)c2)ccc1O | 75.1 | 71.8 | 5.19 | –
COc1cc(/C=C/C(=O)c2cccc(NS(C)(=O)=O)c2)ccc1O | 22.3 | 4.2 | – | –
COc1cc(/C=C/C(=O)CC(=O)/C=C/c2ccc(O)c(OC)c2)ccc1O [CURCUMIN] | 8.5 | 58.4 | 4.31 | 5.13
COc1cc(/C=C/C(=O)c2cccc(NS(=O)(=O)c3cc(Cl)cc(Cl)c3)c2)ccc1O | 55.9 | 37.3 | – | –
COc1cc(/C=C/C(=O)c2cccc(NS(=O)(=O)c3ccc(C)cc3)c2)ccc1O | 99.6 | 98.7 | 5.57 | 5.44
COc1cc(/C=C/C(=O)c2cccc(NS(=O)(=O)c3ccc(C(F)(F)F)cc3)c2)ccc1O | 46.1 | 65.8 | – | –
COc1cc(/C=C/C(=O)c2cccc(NS(=O)(=O)c3ccc(Cl)c(Cl)c3)c2)ccc1O | 41.8 | 30.2 | – | –
COc1cc(/C=C/C(=O)c2cccc(NS(=O)(=O)c3cc(Cl)ccc3Cl)c2)ccc1O | 30.4 | 53.4 | – | –
COc1cc(/C=C/C(=O)c2cccc(NS(=O)(=O)c3c(Cl)cccc3Cl)c2)ccc1O | 99.8 | 99.4 | 5.74 | 5.56
